pIC50: −log10 of the molar value. Where two headings read alike, the source gives them in different places.
Columns and labels:
Type in all cases: biochemical
[1] = biological target: KRAS G12V binding to BRAF RBD (Homo sapiens (Human), UniProt P01116+P62937, G12V); test: Ras-Raf disruption/FRET/MOA assay, KRAS G12V
From the text: (§1) Note—The following protocol describes a procedure for monitoring disruption of K-Ras G12C(GMP-PNP) binding to BRAF^RBD by a compound of the invention. This protocol may also be executed substituting other Ras proteins or nucleotides.
(§2) The purpose of this biochemical assay was to measure the ability of test compounds to facilitate ternary complex formation between a nucleotide-loaded K-Ras isoform and Cyclophilin A; the resulting ternary complex disrupts binding to a BRAF^RBD construct, inhibiting K-Ras signaling through a RAF effector. Data is reported as IC50 values.
(§3) Compound was present in plate wells as a 10-point 3-fold dilution series starting at a final concentration of 30 μM. After incubation at 25° C. for 3 hours, a mixture of Anti-His Eu—W1024 and anti-GST allophycocyanin was then added to assay sample wells at final concentrations of 10 nM and 50 nM, respectively, and the reaction incubated for an additional 1.5 hours. […] Compounds that facilitate disruption of a K-Ras: RAF complex were identified as those eliciting a decrease in the TR-FRET ratio relative to DMSO control wells.

[2] = biological target: KRAS G13C binding to BRAF RBD (Homo sapiens (Human), UniProt P01116+P62937, G13C); test: Ras-Raf disruption/FRET/MOA assay, KRAS G13C
KRAS G13C binding to BRAF RBD, sequence (P01116 other isoform, or with tags, fused parts or gaps G13C): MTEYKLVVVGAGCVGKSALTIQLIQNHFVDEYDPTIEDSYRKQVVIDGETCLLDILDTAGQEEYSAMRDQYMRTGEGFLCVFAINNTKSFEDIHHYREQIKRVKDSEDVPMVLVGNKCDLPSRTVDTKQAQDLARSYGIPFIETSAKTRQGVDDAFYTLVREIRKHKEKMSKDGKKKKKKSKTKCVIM
KRAS G13C binding to BRAF RBD, sequence (P62937 whole entry, the tested form may be a part): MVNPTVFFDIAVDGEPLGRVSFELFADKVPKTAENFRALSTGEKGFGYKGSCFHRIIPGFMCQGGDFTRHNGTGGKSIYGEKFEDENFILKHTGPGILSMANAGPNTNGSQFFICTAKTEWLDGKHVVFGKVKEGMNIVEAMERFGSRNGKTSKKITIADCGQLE
From the text: Disruption of B-Raf Ras-binding Domain (BRAF^RBD) Interaction with K-Ras by Compounds of the Invention (also called a FRET assay or an MOA assay)
as §1, §2
as §3, with “In assay buffer containing 25 mM HEPES pH 7.3, 0.002% Tween20, 0.1% BSA, 100 mM NaCl and 5 mM MgCl2, tagless Cyclophilin A, His6-K-Ras-GMPPNP, and GST-BRAF^RBD were combined in a 384-well assay plate at final concentrations of 25 μM, 12.5 nM and 50 nM, respectively. Compound was” for “Compound was”

[3] = biological target: KRAS WT binding to BRAF RBD (Homo sapiens (Human), UniProt P01116+P62937); test: Ras-Raf disruption/FRET/MOA assay, KRAS WT
KRAS WT binding to BRAF RBD, sequence (P01116 other isoform, or with tags, fused parts or gaps): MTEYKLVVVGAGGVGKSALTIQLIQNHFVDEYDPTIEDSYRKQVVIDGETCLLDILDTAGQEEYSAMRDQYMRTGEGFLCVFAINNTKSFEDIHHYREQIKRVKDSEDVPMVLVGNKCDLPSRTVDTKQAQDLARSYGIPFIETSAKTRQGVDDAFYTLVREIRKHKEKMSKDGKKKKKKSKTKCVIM
KRAS WT binding to BRAF RBD, sequence (P62937 whole entry): as the sequence (P62937 whole entry, the tested form may be a part) above
How it was run: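 TR-FRET disruption assay: His6-tagged GMPPNP-loaded Ras (12.5 nM), GST-BRAF RBD (50 nM) and Cyclophilin A (25 μM) incubated with compound (10-point 3-fold series from 30 μM) 3 h at 25°C in HEPES pH 7.3 buffer with MgCl2 and NaCl. Anti-His Eu (10 nM)/anti-GST APC (50 nM) added, 1.5 h more; IC50 from FRET-ratio decrease versus DMSO.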

KRAS G12V binding to BRAF RBD, sequence (P01116 other isoform, or with tags, fused parts or gaps G12V): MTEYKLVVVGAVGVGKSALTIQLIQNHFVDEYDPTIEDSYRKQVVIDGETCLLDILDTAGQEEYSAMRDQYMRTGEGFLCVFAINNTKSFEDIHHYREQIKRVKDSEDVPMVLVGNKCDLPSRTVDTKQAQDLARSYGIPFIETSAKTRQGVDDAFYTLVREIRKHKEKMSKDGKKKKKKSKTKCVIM
KRAS G12V binding to BRAF RBD, sequence (P62937 whole entry): as the sequence (P62937 whole entry, the tested form may be a part) above

CCn1c(-c2cccnc2[C@H](C)OC)c2c3cc(ccc31)-c1csc(n1)C[C@H](NC(=O)[C@H](C(C)C)N(C)C(=O)C1COC1)C(=O)N1CCC[C@H](N1)C(=O)OCC(C)(C)C2 [Compound A245]
pIC50 [1]: 7.00 to 8.00

CCn1c(-c2cccnc2[C@H](C)OC)c2c3cc(ccc31)-c1cc(O)cc(c1)C[C@H](NC(=O)[C@H](C(C)C)N(C)C(=O)C1CC(=O)N(C3CC3)C1)C(=O)N1CCC[C@H](N1)C(=O)OCC(C)(C)C2 (stereo partly shown) [Compound A252]
pIC50 [2]: > 8.00

CCn1c(-c2cnccc2COC)c2c3cc(ccc31)-c1cc(O)cc(c1)C[C@H](NC(=O)[C@H](C(C)C)N(C)C(=O)N1CCNCC1)C(=O)N1CCC[C@H](N1)C(=O)OCC(C)(C)C2 [Compound A255]
pIC50 [2]: > 8.00

CCn1c(-c2cccnc2[C@H](C)OC)c2c3cc(ccc31)-c1cc(O)cc(c1)C[C@H](NC(=O)[C@@H](C(C)C)N(C)C(C)=O)C(=O)N1CCC[C@H](N1)C(=O)OCC(C)(C)C2 [Compound A256]
pIC50 [3]: 7.00 to 8.00

CCn1c(-c2cccnc2[C@H](C)OC)c2c3cc(ccc31)-c1csc(n1)C[C@H](NC(=O)[C@H](C(C)C)N(C)C(=O)N1C[C@@H](C)N(C)C[C@@H]1C)C(=O)N1CCC[C@H](N1)C(=O)OCC(C)(C)C2 [Compound A292]
pIC50 ([1]; read-out: KRAS G12V FRET IC50): 7.00 to 8.00
pIC50 [2]: > 8.00

CCn1c(-c2cccnc2[C@H](C)OC)c2c3cc(ccc31)-c1csc(n1)C[C@H](NC(=O)[C@H](C(C)C)N(C)C(=O)N1CC(N3CCC3)C1)C(=O)N1CCC[C@H](N1)C(=O)OCC(C)(C)C2 [Compound A295]
pIC50 [3]: 7.00 to 8.00
pIC50 ([1]; read-out: KRAS G12V FRET IC50): 7.00 to 8.00

CCn1c(-c2cccnc2[C@H](C)OC)c2c3cc(ccc31)-c1csc(n1)C[C@H](NC(=O)[C@H](C(C)C)N(C)C(=O)N1C[C@H](C)N(C)C[C@H]1C)C(=O)N1CCC[C@H](N1)C(=O)OCC(C)(C)C2 [Compound A300]
pIC50 [3]: 7.00 to 8.00
pIC50 ([1]; read-out: KRAS G12V FRET IC50): 7.00 to 8.00

CCn1c(-c2cccnc2[C@H](C)OC)c2c3cc(ccc31)-c1csc(n1)C[C@H](NC(=O)[C@H](C(C)C)N(C)C(=O)N1CC(N3CCOCC3)C1)C(=O)N1CCC[C@H](N1)C(=O)OCC(C)(C)C2 [Compound A338]
pIC50 [3]: 7.00 to 8.00
pIC50 ([1]; read-out: KRAS G12V FRET IC50): 7.00 to 8.00
pIC50 [2]: > 8.00

CCn1c(-c2cccnc2[C@H](C)OC)c2c3cc(ccc31)-c1csc(n1)C[C@H](NC(=O)C1CC1)C(=O)N1CCC[C@H](N1)C(=O)OCC(C)(C)C2 [Compound A367]
pIC50 [3]: 7.00 to 8.00

CCn1c(-c2cccnc2[C@H](C)OC)c2c3cc(ccc31)-c1cc(O)cc(c1)C[C@H](NC(=O)[C@H](C(C)C)N(C)C(=O)[C@H]1CCN(C(=O)[C@@H](C)N(C)C)C1)C(=O)N1CCC[C@H](N1)C(=O)OCC(C)(C)C2 [Compound A386]
pIC50 [3]: 7.00 to 8.00

CCn1c(-c2cccnc2[C@H](C)OC)c2c3cc(ccc31)-c1cc(O)cc(c1)C[C@H](NC(=O)[C@H](C(C)C)N(C)C(=O)C1CNCCNC1)C(=O)N1CCC[C@H](N1)C(=O)OCC(C)(C)C2 [Compound A432]
pIC50 [3]: 7.00 to 8.00

CCn1c(-c2cccnc2[C@H](C)OC)c2c3cc(ccc31)-c1csc(n1)C[C@H](NC(=O)[C@H](C(C)C)N(C)C(=O)N1CCO[C@@]3(CCN(C)C3)C1)C(=O)N1CCC[C@H](N1)C(=O)OCC(C)(C)C2 [Compound A436]
pIC50 [3]: 7.00 to 8.00

CCn1c(-c2cccnc2[C@H](C)OC)c2c3cc(ccc31)-c1csc(n1)C[C@H](NC(=O)[C@H](C(C)C)N(C)C(=O)N1CC[C@]3(CCNC3=O)C1)C(=O)N1CCC[C@H](N1)C(=O)OCC(C)(C)C2 [Compound A479]
pIC50 [3]: 7.00 to 8.00
pIC50 ([1]; read-out: KRAS G12V FRET IC50): 7.00 to 8.00

CCn1c(-c2cccnc2[C@H](C)OC)c2c3cc(ccc31)-c1csc(n1)C[C@H](NC(=O)[C@H](C(C)C)N(C)C(=O)N1CCC[C@H](N(C)C)CC1)C(=O)N1CCC[C@H](N1)C(=O)OCC(C)(C)C2 [Compound A493]
pIC50 [3]: 7.00 to 8.00
pIC50 ([1]; read-out: KRAS G12V FRET IC50): 7.00 to 8.00

CCn1c(-c2cccnc2[C@H](C)OC)c2c3cc(ccc31)-c1csc(n1)C[C@H](NC(=O)[C@H](C(C)C)N(C)C(=O)N(C)C1(C)COC1)C(=O)N1CCC[C@H](N1)C(=O)OCC(C)(C)C2 [Compound A527]
pIC50 [3]: 7.00 to 8.00
pIC50 ([1]; read-out: KRAS G12V FRET IC50): 7.00 to 8.00

CCn1c(-c2cccnc2[C@H](C)OC)c2c3cc(ccc31)-c1csc(n1)C[C@H](NC(=O)[C@H](C(C)C)N(C)C(=O)N1CCN3C(=O)CN(C)C[C@H]3C1)C(=O)N1CCC[C@H](N1)C(=O)OCC(C)(C)C2 [Compound A537]
pIC50 [3]: 7.00 to 8.00
pIC50 ([1]; read-out: KRAS G12V FRET IC50): 7.00 to 8.00

CCn1c(-c2cccnc2[C@H](C)OC)c2c3cc(ccc31)-c1csc(n1)[C@@H](OC)[C@H](NC(=O)[C@H](C(C)C)N(C)C(=O)N(C)C)C(=O)N1CCC[C@H](N1)C(=O)OCC(C)(C)C2 [Compound A598, (2S)—N-((6^3S,3S,4S,Z)-1^1-ethyl-3-methoxy-1^2-(2-((S)-1-methoxyethyl)pyridin-3-yl)-10,10-dimethyl-5,7-dioxo-6^1,6^2,6^3,6^4,6^5,6^6-hexahydro-1^1H-8-oxa-2 (4,2)-thiazola-1 (5,3)-indola-6 (1,3)-pyridazinacycloundecaphane-4-yl)-3-methyl-2-(1,3,3-trimethylureido) butanamide]
pIC50 [3]: 7.00 to 8.00

CCn1c(-c2cccnc2[C@H](C)OC)c2c3cc(ccc31)-c1csc(n1)C[C@H](NC(=O)[C@H](C(C)C)N(C)C(=O)N1CC3(CCN(C)C3)C1)C(=O)N1CCC[C@H](N1)C(=O)OCC(C)(C)C2 [Compound A602]
pIC50 [3]: 7.00 to 8.00
pIC50 ([1]; read-out: KRAS G12V FRET IC50): 7.00 to 8.00

From patent US20250195521A1 (Revolution Medicines, Inc., priority 2020, published 2025)
